Measured values published in PubChem BioAssay (NCI).
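Each compound was tested at five concentrations against cells in 96-well plates for 48 hours. The concentration for 50% growth inhibition is given as GI50. TGI denotes the concentration required for complete inhibition of growth.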

Experiments:
Assay in all cases: growth of human tumour cells (NCI), 48 h
786-0 renal = tested on: 786-0 renal
A549 NSCLC = tested on: A549 NSCLC
EKVX NSCLC = tested on: EKVX NSCLC
KM12 colon = tested on: KM12 colon
LXFL 529 NSCLC = tested on: LXFL 529 NSCLC
MOLT-4 leukemia = tested on: MOLT-4 leukemia
OVCAR-5 ovarian = tested on: OVCAR-5 ovarian
SK-MEL-5 melanoma = tested on: SK-MEL-5 melanoma
SK-OV-3 ovarian = tested on: SK-OV-3 ovarian
RPMI-8226 leukemia = tested on: RPMI-8226 leukemia

Row | Compound | TGI (786-0 renal) [µM] | TGI (A549 NSCLC) [µM] | TGI (EKVX NSCLC) [µM] | TGI (KM12 colon) [µM] | TGI (LXFL 529 NSCLC) [µM] | TGI (MOLT-4 leukemia) [µM] | TGI (OVCAR-5 ovarian) [µM] | TGI (SK-MEL-5 melanoma) [µM] | TGI (SK-OV-3 ovarian) [µM] | TGI (RPMI-8226 leukemia) [µM] | GI50 (786-0 renal) [nM] | GI50 (A549 NSCLC) [µM] | GI50 (EKVX NSCLC) [µM] | GI50 (KM12 colon) [nM] | GI50 (MOLT-4 leukemia) [nM] | GI50 (OVCAR-5 ovarian) [µM] | GI50 (RPMI-8226 leukemia) [nM] | GI50 (SK-MEL-5 melanoma) [nM] | GI50 (SK-OV-3 ovarian) [µM]
1 | Cc1ccc(SSCCCS(=O)O)cc1 | > 100 | > 100 | 88.5 | > 100 | > 100 | 50.6 | > 100 | > 100 | 85.9 |  |  |  |  |  |  |  |  |  | 
2 | CCc1cccc(C(C)CC)c1N=C(NC(=O)c1ccccc1C(=O)NC(=Nc1c(CC)cccc1C(C)CC)SC)SC (stereo not given) | > 100 | > 100 | > 100 | > 100 | > 100 | > 100 | > 100 |  | > 100 | 89.8 |  |  |  |  |  |  |  |  | 
3 | CCN1CCC[C@H]1c1cc(O)c2c(c1OC)C[C@H]1C[C@H]3[C@H](N)C(=O)C(C(N)=O)=C(O)[C@@]3(O)C(=O)C1=C2O | 2.19 | 8.72 | 3.54 | 13.2 |  | 0.666 | 4.12 | 0.951 | 0.215 | 0.454 | 50.4 | 0.207 | 0.203 | 99.8 | 58.7 | 0.187 | 41 | 79.7 | 0.032
4 | Cc1cc(C)nc(NS(=O)(=O)c2ccc(Nc3c4ccccc4nc4c(C(=O)NCCN(C)C)ccc(Cl)c34)cc2)n1 | 14.7 | 4.19 | 15.5 | 12.5 | 4.06 |  | 14.9 | 15.2 |  |  |  |  |  |  |  |  |  |  | 
5 | COC(=O)[C@]12CC[C@@H](C)[C@H](C)[C@@H]1C1=CC[C@@H]3[C@@]4(C)C[C@@H](OC(=O)c5ccco5)[C@H](O)[C@@](C)(CO)[C@@H]4[C@H](O)C[C@@]3(C)[C@]1(C)CC2 | 4.46 | 7.05 | 8.67 | 6.77 |  | 4.44 | 5.51 | 4.09 | 11.9 | 7.56 | 2100 | 2.44 | 2.78 | 2620 | 2040 | 2.13 | 2550 | 1990 | 3.95
6 | O=C(c1cc(=O)c2ccc(O)cc2o1)c1ccc(Cl)cc1Cl | > 64.4 | > 100 | 99.3 | > 100 |  | 22.3 | > 100 | > 74.6 | > 100 | > 72.7 |  |  |  |  |  |  |  |  | 
7 | O=C(NCCCN1CCN(CCCNC(=O)c2cnc3ccccc3n2)CC1)c1cnc2ccccc2n1 | > 100 | > 100 | > 100 | > 100 | > 100 | > 100 |  | > 100 | > 100 | > 100 |  |  |  |  |  |  |  |  | 
8 | CN(C)c1cccc(-c2cc(=O)c3ccccc3[nH]2)c1 | > 100 | > 100 | > 100 | > 100 | > 100 | > 100 |  |  | > 100 | > 100 |  |  |  |  |  |  |  |  | 
9 | COc1cccc(Nc2nc(NNC(=O)Cc3ccccc3)nc(NNC(=O)c3ccncc3)n2)c1 | > 100 | > 100 | > 100 | > 100 |  | > 100 | > 100 | > 100 | > 100 | > 100 | > 100000 | > 100 | > 100 |  |  |  | > 100000 | > 100000 | > 100
10 | COc1cc2c(cc1OCCCCNC(=O)c1cc3ccccc3[nH]1)N=CC1CCCN1C2=O (stereo not given) | > 100 | > 100 | 42.2 | 52.6 |  | > 100 | > 100 | 23.9 | 83.6 | 96.3 | 33500 | 28.3 | 17.8 | 16900 | 8720 | 22.9 | 5670 | 5650 | 29.9
11 | Nc1ccc2c(c1)C(=O)c1ccc(F)cc1-2 | > 100 | > 100 | > 100 | > 100 |  | > 100 | > 100 | > 100 | > 100 | > 100 |  |  |  |  |  |  |  |  | 
12 | O=C(Oc1cccnc1)c1ccccc1Nc1ccnc(C(F)(F)F)c1 | 4.64 | > 100 | 46.4 | 2.72 |  | > 100 | > 95.9 | 2.35 | > 100 | 7.22 | 158 | 0.589 | 6.15 | 169 | 49.9 | 0.63 | 56.3 | 203 | 0.25
13 | Cc1ccc(/C=C(\C#N)n2nnc3cc(Cl)c(Cl)cc32)cc1 | 6 | > 100 | > 100 | > 100 |  | > 100 | 9.43 | 6.55 | 91.5 | 4.91 | 2460 | 3.58 | 3.48 | 3030 | 2730 | 3.25 | 1700 | 2440 | 3.69
14 | CC(=O)Nc1ccc2nncnc2c1 | > 100 | > 100 | > 100 | > 100 |  | > 100 | > 100 | > 100 | > 100 | > 100 |  |  |  |  |  |  |  |  | 
15 | CN(C)CC(C(=O)c1ccccc1)c1ccccc1 (stereo not given) | 10.4 | 20.6 | 27.1 | 3.83 |  | 31.3 | 16.8 | 3.45 | 7.77 | 7.49 | 3580 | 6.76 | 10.2 | 1740 | 4200 | 5.93 | 2080 | 1570 | 2.62
16 | CC(C)=CC/C=C(/C)[C@H]1CC[C@]2(C)[C@@H]1CC[C@@H]1[C@@]3(C)CCC(=O)NC(C)(C)[C@@H]3CC[C@]12C | 37.5 | > 100 | 84 | 37.5 |  | 49.6 | 39.5 | 26.4 | > 100 | 34.6 | 19800 | 30.2 | 27.7 | 18700 | 15400 | 19.3 | 11800 | 13300 | 47.7
